pEC50: −log10 of the molar value.
target: T1, Alkaline phosphatase, tissue-nonspecific isozyme (Homo sapiens, UniProt P05186); experiment: activation of tissue-nonspecific alkaline phosphatase – biochemical, TNAP isozyme, human IAP uHTS hits, selectivity assay for human IAP activator project, dose response (AID 488886)
T1 sequence (P05186 whole entry): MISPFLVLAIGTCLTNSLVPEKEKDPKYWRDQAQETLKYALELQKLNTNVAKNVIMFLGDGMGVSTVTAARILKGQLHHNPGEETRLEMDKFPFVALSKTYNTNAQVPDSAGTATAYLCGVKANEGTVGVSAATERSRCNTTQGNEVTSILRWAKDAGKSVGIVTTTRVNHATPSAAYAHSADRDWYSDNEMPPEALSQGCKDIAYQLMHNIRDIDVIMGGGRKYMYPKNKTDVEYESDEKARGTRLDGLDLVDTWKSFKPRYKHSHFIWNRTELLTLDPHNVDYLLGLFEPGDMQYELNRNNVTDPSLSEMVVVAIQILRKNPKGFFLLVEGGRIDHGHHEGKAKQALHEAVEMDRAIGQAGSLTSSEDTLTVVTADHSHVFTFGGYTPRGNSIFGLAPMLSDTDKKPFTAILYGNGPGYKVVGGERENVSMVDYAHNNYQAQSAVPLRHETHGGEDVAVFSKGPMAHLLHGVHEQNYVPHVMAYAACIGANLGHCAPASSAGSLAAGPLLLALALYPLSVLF

Row | SMILES | pEC50
1 | Cc1cc(Br)ccc1SCC(=O)OCC(=O)C(C#N)c1nc2ccccc2[nH]1 (stereo not drawn) [2-[(4-bromo-2-methylphenyl)thio]acetic acid [3-cyano-3-(1,3-dihydrobenzimidazol-2-ylidene)-2-oxopropyl] ester] | 4.62
2 | C=c1[nH]n(-c2nc3ccccc3[nH]2)c(=O)c1=CN(C)C [(4E)-2-(1H-benzimidazol-2-yl)-4-(dimethylaminomethylidene)-5-methyl-pyrazol-3-one] | 4.94
3 | COc1cccc(C=NNC(=O)c2[nH][nH]c(=O)c2C)c1O [N'-[(E)-(5-methoxy-6-oxidanylidene-cyclohexa-2,4-dien-1-ylidene)methyl]-4-methyl-5-oxidanylidene-1,4-dihydropyrazole-3-carbohydrazide] | 5.05
4 | CCOC(=O)c1c(C)[nH]c(C(=O)N/N=C/C2C=C([N+](=O)[O-])C=CC2=O)c1C (stereo not drawn) [ethyl 2,4-dimethyl-5-[[[(E)-(3-nitro-6-oxocyclohexa-2,4-dien-1-ylidene)methyl]amino]carbamoyl]-1H-pyrrole-3-carboxylate] | 4.65

More lines, now with the values ahead:

Row | pEC50 | SMILES
5 | < 4.00 | O=Nc1[nH]c(=O)c(CC(=O)c2ccccc2)nc1NO [SMR000539633]
6 | 4.75 | CCc1ccc(CN=Nc2ncnc3nc[nH]c23)cc1 [MLS000419199]
7 | < 4.00 | O=c1c2ccccc2nc(N=NCc2c(O)ccc3ccccc23)n1O [SMR000145705]
8 | 4.35 | Cn1c(C(C#N)C(=O)c2ccc(Br)s2)nc2ccccc21 (stereo not drawn) [MLS001167394]

— BindingDB's records for doi:10.7270/Q24Q7SF3 (Burnham Center For Chemical Genomics, 2010)
